Laboratory results as given in patent US20250129101A1, “Compound, Pharmaceutical Composition Comprising the Same and Method for Treating Cancer Using the Same” (NATIONAL TSING HUA UNIVERSITY, priority 2023, published 2025).

Assays:
4T1 R4 cells = assay: Cell viability assay, 4T1 R4 cells; assay type: cell-based, mouse; settings: with 400 nM paclitaxel, 72 hr
Protocol: MCF-7, MDA-MB-231, MDA-MB-468, Hs578T, 4T1, and HeLa cell lines stably expressing H2B-mCherry and eGFP-tubulin (kindly provided by Dr. Anthony A. Hyman, Max-Planck-Institute for Molecular Cell Biology and Genetics, Dresden, Germany) were cultured in high-glucose Dulbecco's Modified Eagle Medium (DMEM). SK-BR-3 cells were cultured in McCoy's Modified 5a Medium. Hs578T cells were cultured in high-glucose DMEM supplemented with an additional 0.01 mg/mL bovine insulin. […] All mentioned media were supplemented with 10% fetal bovine serum (Gibco) and 1% Penicillin/Streptomycin (Corning), and cells were incubated at 37° C. in a humidified atmosphere containing 5% CO2. HEK293 cells were cultured in HE300 medium (GMEP incorporated, Japan) and maintained in suspension culture with 125 rpm and 8% CO2.
(§1) The cancer cells were cultured in a 96-well plate at a confluence of 1000-2000 cells/well with indicated drugs for specific days. When the time was up, the culture medium in the plate was aspirated and replaced with a prepared CellTiter-Glo reagent/DMEM mixture (1:1 mix of CellTiter-Glo reagent and serum-supplemented DMEM). After incubation for 10 min, the luminescence (proportional to the number of living cells) was measured with an ELISA plate reader to determine the cell viability.

4T1 cells = assay: Flow cytometry analysis of cell membrane penetration ability; assay type: cell-based, mouse; settings: 2 hr of drug treatment
Protocol: To quantify the cell membrane penetration ability of different DHTP analogs, 4T1 cells were collected by trypsin after 2 hr of drug treatment and then transferred into microcentrifuge tubes. 4T1 cells were then resuspended into the FACS buffer (1% FBS, 2 mM EDTA, and 0.05% NaN3 in PBS). After two times of FACS buffer rinsing, these samples were detected by flow cytometry (Cyto FLEX™ FLOW Cytometer). The KO525 (405 nm laser; 525 nm filter) channel was used to detect DHTP and 7S9.

4T1 R4 = assay: In vivo tumor growth inhibition, 4T1 R4 syngeneic model; design: species or system mouse; settings: R4 tumors, BALB/c mice
Protocol: The mice were housed at the National Health Research Institute (NHRI) Animal Center in accordance with the Institutional Animal Care and Use Committee procedures and guidelines. The 4T1-derived cells, including 4T1, 4T1 R4, and 4T1 R8, used for implantation were harvested during log phase growth and resuspended in phosphate-buffered saline. Each mouse was injected s.c. in the right flank with 5×10^5 cells. After tumor size reached 60-100 mm 3 (D1), mice were divided into groups and received treatment with vehicle or different compounds alone or in combinations. Tumor size, in mm 3, was measured twice per week and calculated from Tumor volume=(w 2×1)/2, where w=width and 1=length in mm of the tumor. The values of tumor size were expressed as mean±SEM.

[1] = tested on: MDA-MB-231 R, MDA-MB-231 S, 4T1 S1, R4, and R8 cells; assay: Cell viability of indicated cell lines, DHTP or 7S9 for 72 hr; assay type: cell-based; settings: Homo sapiens, range over MDA-MB-231 R, read-out: cytotoxicity IC50 values
Protocol: as §1

CCN1CCN(C(=O)COc2ccc(/C=c3\sc4n(c3=O)C(c3ccc(Cl)cc3)C(C(=O)OC(C)C)=C(C)N=4)cc2)CC1.O=C(O)/C=C\C(=O)O (centres unmarked) [7S9 (133), isopropyl (Z)-5-(4-chlorophenyl)-2-(4-(2-(4-ethylpiperazin-1-yl)-2-oxoethoxy)benzylidene)-7-methyl-3-oxo-2,3-dihydro-5H-thiazolo[3,2-a]pyrimidine-6-carboxylate maleate]
fold increase of cell sensitivity to 7S9 by paclitaxel (4T1 R4 cells): 10.5 fold | cell penetration, fluorescence signal at 510 nm emission (in words) (4T1 cells): good cell-penetrating property | tumor growth inhibition (4T1 R4; 7S9 50 mg/kg intraperitoneally, 5on/2off two cycles): 29% | tumor growth inhibition, combination (4T1 R4; 7S9 50 mg/kg with paclitaxel 15 mg/kg): 70.2% | IC50 [1]: 4.9 to 8.6 µM
